According to US20130344166A1, “TOPICAL MIXTURE AND METHOD FOR DERMAL APPLICATION TO REMOVE EXCESS IRON AND OTHER HEAVY METALS FROM CELLULAR TISSUE” (priority 2012, published 2013):

Experiments:
[1] = Blood sugar level of a patient after application of the topical mixture to the skin; type: in vivo, human; conditions: presence of L-Histidine in the mixture
Text: The present invention is best practiced by application of the trivalent Chromium composition at least twice daily. Preferably the application will be made before sleep and early in the morning ideally before exercise. Although the present invention may be applied to the entire body it is recommended it be applied to the legs and groin area where easy access to a large number of blood vessels can be achieved. Additionally, the legs and groin area contained some of the most exercised muscles in the human body. An alternative carrier base can be achieved through infusion of the trivalent Chromium and other elements into a bar of soap so as to achieve even distribution over the entire body. FIGS. 1 and 2 and the charts below show the blood sugar level of a patient utilizing the present invention in accordance with the formulation set above. The blood sugar level can be seen to drop dramatically after application of the present invention to the surface of the skin.

[2] = test system: excess Iron within the cells; assay: Tests of trivalent Chromium on excess Iron within the cells of humans; type: in vivo; conditions: absorbed into the bloodstream and delivered to the individual cells of humans
Text: Also included in the present invention is trivalent Chromium. As currently contemplated, the Chromium will be in the form of Chromium Picolinate, Chromium Polynicotinate, or Chromium Chloride. The essential element is trivalent Chromium. The choice of Chromium Picolinate, Chromium Polynicotinate, or Chromium Chloride has been made by the inventors because they are readily, commercially available in most health food stores, pharmacies, and other sources of dietary supplements. […] This is a desirable treatment for people suffering from Diabetes and there are currently studies, which indicate that “Iron Loading” can possibly be attached to the occurrence of cancer. A possible alternative or compliment to the Chromium of the present invention is Vanadium in the form of Vanadyl Sulfate. A combination of both Chromium and Vanadium compounds have been utilized in some tests with desirable results.

Compound	levels of blood sugar in patients [1]	levels of excess Iron within the cells [2]
N[C@@H](Cc1c[nH]cn1)C(=O)O [L-Histidine]	beneficial to lowering the levels of blood sugar	–
trivalent Chromium	–	reduces the levels of excess Iron within the cells
